Source: the supplement of paper PMC11061612

Experiments:
Experiment in all cases: combination Emax (second highest fraction inhibited in the dose matrix, 72 h); higher = more inhibition; extreme values may be limits of the assay
[1] = system: JiyoyeP-2003 (Burkitt's Lymphoma)
Procedure, shortened: (§1)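 Bliss excess equals the observed combination effect minus the expected value EA + EB − EA·EB, where EA and EB are the effects of each agent alone. Combination Emax is the second-highest inhibition within the matrix. Inhibition was scaled from CellTiter-Glo 2.0 luminescence, with 0 set by vehicle wells and 1 by blank wells, after 72 hours of two-drug dosing of cells plated in 1536-well plates.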

[2] = system: TE-5 (Esophageal Squamous Cell Carcinoma)
Procedure, shortened: as §1

[3] = system: NCI-H1781 (Lung Adenocarcinoma)
Procedure, shortened: as §1

[4] = system: COR-L23 (Non-Small Cell Lung Carcinoma)
Procedure, shortened: as §1

[5] = system: KATOIII (Gastric Carcinoma)
Procedure, shortened: as §1

[6] = system: LU-99A (Non-Small Cell Lung Carcinoma)
Procedure, shortened: as §1

[7] = system: EM-2 (Chronic Myelogenous Leukemia)
Procedure, shortened: as §1

[8] = system: C3A (Hepatocellular Carcinoma)
Procedure, shortened: as §1

[9] = system: NCI-H1694 (Small Cell Lung Carcinoma)
Procedure, shortened: as §1

[10] = system: RH-1 (Ewing's Sarcoma)
Procedure, shortened: as §1

[11] = system: CTV-1 (T-Lymphoblastic Leukemia)
Procedure, shortened: as §1

[12] = system: DB (B-Cell Non-Hodgkin's Lymphoma)
Procedure, shortened: as §1

[13] = system: NCI-H1793 (Lung Adenocarcinoma)
Procedure, shortened: as §1

[14] = system: G-292-Clone-A141B1 (Osteosarcoma)
Procedure, shortened: as §1

[15] = system: HT-29 (Colorectal Carcinoma)
Procedure, shortened: as §1

[16] = system: J82 (Bladder Carcinoma)
Procedure, shortened: as §1

[17] = system: ES7 (Ewing's Sarcoma)
Procedure, shortened: as §1

[18] = system: SW1783 (Low Grade Glioma)
Procedure, shortened: as §1

[19] = system: 697 (B-Lymphoblastic Leukemia)
Procedure, shortened: as §1

[20] = system: DMS-273 (Small Cell Lung Carcinoma)
Procedure, shortened: as §1

Compound | combination Emax [1] | combination Emax [2] | combination Emax [3] | combination Emax [4] | combination Emax [5] | combination Emax [6] | combination Emax [7] | combination Emax [8] | combination Emax [9] | combination Emax [10] | combination Emax [11] | combination Emax [12] | combination Emax [13] | combination Emax [14] | combination Emax [15] | combination Emax [16] | combination Emax [17] | combination Emax [18] | combination Emax [19] | combination Emax [20]
C=CCn1c(=O)c2cnc(Nc3ccc(N4CCN(C)CC4)cc3)nc2n1-c1cccc(C(C)(C)O)n1 [AZD1775] + C[C@@H]1COCCN1C2=NC(=NC(=C2)C3(CC3)[S@](=N)(=O)C)C4=C5C=CNC5=NC=C4 [AZD6738] (first compound max 1 µM, partner max 10 µM) | 0.982 | 0.577 | 0.65 | 0.595 | 0.507 | 0.694 | 0.977 | 0.567 | 0.883 | 1 | 0.993 | 0.934 | 0.548 | 0.354 | 0.858 | 0.414 | 0.903 | 0.41 | 1 | 0.923
CCN(CCO)CCCOc1ccc2c(Nc3cc(CC(=O)Nc4cccc(F)c4)[nH]n3)ncnc2c1 [AZD2811] + C=CCn1c(=O)c2cnc(Nc3ccc(N4CCN(C)CC4)cc3)nc2n1-c1cccc(C(C)(C)O)n1 [AZD1775] (first compound max 1 µM, partner max 1 µM) | 0.926 | 0.313 | 0.819 | 0.349 | 0.221 | 0.585 | 0.96 | 0.421 | 0.374 | 1 | 0.969 | 0.867 | 0.359 | 0.152 | 0.82 | 0.315 | 0.783 | 0.193 | 1 | 0.827
CCN(CCO)CCCOc1ccc2c(Nc3cc(CC(=O)Nc4cccc(F)c4)[nH]n3)ncnc2c1 [AZD2811] + C[C@@H]1COCCN1C2=NC(=NC(=C2)C3(CC3)[S@](=N)(=O)C)C4=C5C=CNC5=NC=C4 [AZD6738] (first compound max 1 µM, 7x7, partner max 10 µM) | 0.93 | 0.476 | 0.775 | 0.511 | 0.424 | 0.659 | 0.968 | 0.464 | 0.73 | 1 | 0.84 | 0.726 | 0.327 | 0.263 | 0.829 | 0.184 | 0.865 | 0.321 | 1 | 0.771
CCN(CCO)CCCOc1ccc2c(Nc3cc(CC(=O)Nc4cccc(F)c4)[nH]n3)ncnc2c1 [AZD2811] + O=C(c1cc(Cc2n[nH]c(=O)c3ccccc23)ccc1F)N1CCN(C(=O)C2CC2)CC1 [Olaparib] (first compound max 1 µM, 7x7, partner max 10 µM) | 0.315 | 0.184 | 0.67 | 0.0799 | 0.12 | 0.508 | 0.822 | 0.253 | 0.276 | 0.947 | 0.375 | 0.604 | 0.0897 | 0.304 | 0.182 | 0.0709 | 0.918 | 0.201 | 1 | 0.735
CN(CCO)CC[C@H](CSc1ccccc1)Nc1ccc(S(=O)(=O)NC(=O)c2ccc(N3CCC([C@@H](O)c4ccccc4-c4ccc(Cl)cc4)CC3)cc2)cc1S(=O)(=O)C(F)(F)F [AZD4320] + C1CN(CCC1(C(=O)N[C@@H](CCO)C2=CC=C(C=C2)Cl)N)C3=NC=NC4=C3C=CN4 [Capivasertib] (first compound max 1 µM, 7x7, partner max 3 µM) | 0.773 | 0.321 | 0.341 | 0.258 | 0.128 | 0.35 | 0.98 | 0.292 | 0.763 | 0.394 | 0.404 | 0.899 | 0.195 | 0.754 | 0.196 | 0.164 | 0.762 | 0.44 | 1 | 0.713
CN(CCO)CC[C@H](CSc1ccccc1)Nc1ccc(S(=O)(=O)NC(=O)c2ccc(N3CCC([C@@H](O)c4ccccc4-c4ccc(Cl)cc4)CC3)cc2)cc1S(=O)(=O)C(F)(F)F [AZD4320] + CCN(CCO)CCCOc1ccc2c(Nc3cc(CC(=O)Nc4cccc(F)c4)[nH]n3)ncnc2c1 [AZD2811] (first compound max 1 µM, 7x7, partner max 1 µM) | 0.827 | 0.478 | 0.741 | 0.15 | 0.0347 | 0.701 | 0.985 | 0.22 | 0.94 | 0.913 | 0.27 | 0.891 | 0.283 | 0.578 | 0.232 | 0.126 | 1 | 0.412 | 1 | 0.766
CN(CCO)CC[C@H](CSc1ccccc1)Nc1ccc(S(=O)(=O)NC(=O)c2ccc(N3CCC([C@@H](O)c4ccccc4-c4ccc(Cl)cc4)CC3)cc2)cc1S(=O)(=O)C(F)(F)F [AZD4320] + CN(C)CCCOc1ccc(-c2ccc3ncc4c(c3c2)n(C2CCOCC2)c(=O)n4C)cn1 [AZD0156] (first compound max 1 µM, 7x7, partner max 1 µM) | 0.645 | 0.43 | 0.183 | 0.0875 | 0.0663 | 0.292 | 0.968 | 0.248 | 0.718 | 0.359 | 0.211 | 0.933 | 0.253 | 0.647 | 0.169 | 0.122 | 0.747 | 0.52 | 1 | 0.247
CN(CCO)CC[C@H](CSc1ccccc1)Nc1ccc(S(=O)(=O)NC(=O)c2ccc(N3CCC([C@@H](O)c4ccccc4-c4ccc(Cl)cc4)CC3)cc2)cc1S(=O)(=O)C(F)(F)F [AZD4320] + C[C@@H]1COCCN1C2=NC(=NC(=C2)C3(CC3)[S@](=N)(=O)C)C4=C5C=CNC5=NC=C4 [AZD6738] (first compound max 1 µM, 7x7, partner max 10 µM) | 0.972 | 0.77 | 0.519 | 0.621 | 0.474 | 0.838 | 0.988 | 0.52 | 0.974 | 0.963 | 0.822 | 0.959 | 0.498 | 0.754 | 0.936 | 0.524 | 1 | 0.669 | 1 | 0.813
CN(CCO)CC[C@H](CSc1ccccc1)Nc1ccc(S(=O)(=O)NC(=O)c2ccc(N3CCC([C@@H](O)c4ccccc4-c4ccc(Cl)cc4)CC3)cc2)cc1S(=O)(=O)C(F)(F)F [AZD4320] + C[C@@H](Nc1cc(F)cc(F)c1)c1cc(C(=O)N(C)C)cc2c(=O)cc(N3CCOCC3)oc12 [AZD8186] (first compound max 1 µM, 7x7, partner max 3 µM) | 0.789 | 0.636 | 0.623 | 0.332 | 0.135 | 0.765 | 0.959 | 0.632 | 0.978 | 0.885 | 0.719 | 0.921 | 0.342 | 0.799 | 0.278 | 0.282 | 0.991 | 0.663 | 1 | 0.649
CN(CCO)CC[C@H](CSc1ccccc1)Nc1ccc(S(=O)(=O)NC(=O)c2ccc(N3CCC([C@@H](O)c4ccccc4-c4ccc(Cl)cc4)CC3)cc2)cc1S(=O)(=O)C(F)(F)F [AZD4320] + Cc1cc2ncnn2cc1Nc1ncc2c(n1)n(C1CCOCC1)c(=O)n2C [AZD7648] (first compound max 1 µM, 7x7, partner max 10 µM) | 0.639 | 0.531 | 0.258 | 0.0958 | 0.151 | 0.447 | 0.99 | 0.248 | 0.76 | 0.438 | 0.315 | 0.976 | 0.356 | 0.624 | 0.149 | 0.0607 | 0.804 | 0.366 | 1 | 0.398
CN(CCO)CC[C@H](CSc1ccccc1)Nc1ccc(S(=O)(=O)NC(=O)c2ccc(N3CCC([C@@H](O)c4ccccc4-c4ccc(Cl)cc4)CC3)cc2)cc1S(=O)(=O)C(F)(F)F [AZD4320] + Cn1cnc2c(F)c(Nc3ccc(Br)cc3Cl)c(C(=O)NOCCO)cc21 [Selumetinib] (first compound max 1 µM, 7x7, partner max 3 µM) | 0.84 | 0.597 | 0.568 | 0.442 | 0.29 | 0.87 | 0.971 | 0.847 | 0.957 | 0.854 | 0.706 | 0.953 | 0.248 | 0.564 | 0.695 | 0.245 | 0.984 | 0.706 | 1 | 0.349
COc1nnc2ccc(N3CCC(c4ccc(OCCN5CCN(C)C(=O)[C@H]5C)cc4)CC3)nn12 [AZD5153] + C=CCn1c(=O)c2cnc(Nc3ccc(N4CCN(C)CC4)cc3)nc2n1-c1cccc(C(C)(C)O)n1 [AZD1775] (first compound max 1 µM, partner max 1 µM) | 0.944 | 0.383 | 0.478 | 0.68 | 0.473 | 0.595 | 0.986 | 0.718 | 0.714 | 0.997 | 0.996 | 0.953 | 0.358 | 0.402 | 0.868 | 0.486 | 0.795 | 0.41 | 1 | 0.847
